Measurements as given in patent US20090012038A1, “Methods for microbial biofilm destruction and interference with microbial cellular physiology” (priority 2004, published 2009).

What was measured:
[1] = test system: S. oneidensis strain AS129 biofilm cells (IPTG inducible gfp); assay: Transcription test in biofilm cells: IPTG-inducible gfp, GFP fluorescence by CLSM; type: cell-based, Shewanella oneidensis; details: 10 mM IPTG in flow-through medium; after 1 hour
Method: In order to assure that rifampicin indeed inhibited transcription in biofilm cells under those conditions, we designed an experiment to test transcription in biofilm cells. Tester cells were S. oneidensis cells tagged with an IPTG inducible gfp under control of Pt, which is repressed by LacIQ. […] Upon addition of 10 mM ITPG to the flow-through-medium, the induction of GFP in biofilm cells was readily observed by CLSM throughout the entire biofilm and quantified. This assay is very sensitive, and after 1 hour, about 20% of the maximal inducible GFP fluorescence was observed.

S. oneidensis biofilms = assay: Stop-of-flow-induced detachment of biofilms in hydrodynamic flow chamber (CLSM, COMSTAT); type: cell-based, Shewanella oneidensis MR-1
Method: Transcription is not required for the oxygen starvation-induced detachment. To directly test whether transcription is required for detachment upon rapid decrease in molecular oxygen concentration, we grew biofilms of S. oneidensis in LM medium for 12 h, and subsequently switched the medium to a LM medium amended with 10 μg/ml rifampicin for 10 or 40 minutes, respectively. After that time period, the medium flow was stopped to induce detachment.
External addition of c-di-GMP reversibly prevents biofilm detachment. […] We, therefore, predicted that amending the flow through medium of a biofilm in a hydrodynamic system with c-di-GMP should prevent the induction of detachment after applying a stop-of-flow. To test this hypothesis, biofilms of wild type S. oneidensis were grown in LM medium. […] After 30 min, the flow was stopped to induce detachment and the non-detached biomass was quantified. […]
Microscopic visualization of and image acquisition from biofilms took place at the Stanford Biofilm Research Center using an upright Zeiss LSM510 Confocal Laser Scanning Microscope (Carl Zeiss, Jena, Germany) equipped with the following objectives: 10×/0.3 Plan-Neofluar, 20×/0.5W Achroplan, and 40×/1.2W C-Apochromat. […] Biofilm parameters, such as biomass, and average biofilm thickness were quantified with the program COMSTAT (Heydorn et al., 2000).

Row | SMILES | GFP fluorescence, share of the maximal inducible GFP fluorescence [1] | detachment after stop-of-flow following removal of c-di-GMP (S. oneidensis biofilms; flow resumed with LM devoid of c-di-GMP, 2 h incubation, then flow stopped) | detachment after stop-of-flow (S. oneidensis biofilms; wild type biofilm 12 h in LM, medium amended with 5 mM c-di-GMP, flow stopped after 30 min)
1 | CC(C)S[C@@H]1O[C@H](CO)[C@H](O)[C@H](O)[C@H]1O [IPTG, isopropyl-D-D-thiogalactopyranosid] | about 20% |  | 
2 | Nc1nc2c(ncn2[C@@H]2O[C@@H]3COP(=O)(O)O[C@H]4[C@@H](O)[C@H](n5cnc6c(=O)[nH]c(N)nc65)O[C@@H]4COP(=O)(O)O[C@H]3[C@H]2O)c(=O)[nH]1 [c-di-GMP, cyclic-bis(3′,5′)guanylic acid] |  | the biofilm still detached | no detachment was observed
